Here are results for two compounds from patent US8048880B2, “Treatment of cardiovascular disease and dyslipidemia using secretory phospholipase A2 (SPLA2) inhibitors and SPLA2 inhibitor combination therapies” (Anthera Pharmaceuticals, Inc., priority 2007, dated 2011).

Holding throughout (format): in vivo
Experiment [1] has as its system ApoE−/− mice. The experiment in a line: Plasma total cholesterol and HDL levels in ApoE−/− mice, A-002 and/or statin (Example 3). The settings on record: 0.02 g/kg pravastatin in diet alone, 12 weeks. How it is done:
(§1) Body weight, plasma total cholesterol, and plasma HDL levels were measured for six groups of twelve ApoE^−/− mice. The mice were then placed on a high fat diet for twelve weeks to allow for formation of significant fatty atherosclerotic plaques. The high fat diet was a modified version of the Western diet (TD.88137, Harlan Teklad, Madison, Wis.) consisting of casein (195 g/kg), DL-methionine (3 g/kg), sucrose (341.44 g/kg), corn starch (150 g/kg), anhydrous milkfat (210 g/kg), cholesterol (1.5 g/kg), cellulose (50 g/kg), mineral mix AlN-76 (Teklad; 35 g/kg), calcium carbonate (4 g/kg), vitamin mix (Teklad #40060; 10 g/kg), ethyoxyquin (antioxidant, 0.04 g/kg), and either 0.0156 g/kg (“low dose”) A-002 (Group A), 1.56 g/kg (“high dose”) A-002 (Group B), 0.02 g/kg pravastatin (Group C), low dose A-002 plus 0.02 g/kg pravastatin (Group D), high dose A-002 plus 0.02 g/kg pravastatin (Group E), or vehicle only (Group F). Mice were administered diets A-F in a blinded manner, and food was provided ad libitum. The diet was initially prepared based on the assumption that each mouse weighed 22.5 g and ate 4.5 g/day. Based on body weight and food consumption, the diet was modified over the 12 week course of treatment to adjust for a body weight of 26 g and a food intake of 2.5 g/day. The dosages of A-002 were selected to cover a range of 100-fold based on pharmacokinetics in ApoE^−/− mice as well as toxicology and previously observed efficacy in this model.
Plasma total cholesterol and HDL levels were measured. Mean levels of total cholesterol were decreased in mice administered A-002 alone or in combination with statin (Table 3, FIG. 6). […] Mean levels of HDL were increased in mice administered A-002 at either dosage (Table 4). This increase was greater in mice administered high dose A-002 plus statin than in mice administered high dose A-002 or statin alone (Table 4 compare Group E vs. Groups B and C; FIG. 7).

Experiment [2] has as its system human subjects with CVD, specifically stable coronary artery disease. The experiment in a line: Serum lipid levels in humans, A-002 twice a day for eight weeks (Example 4). How it is done: 204 human subjects from the United States with CVD, specifically stable coronary artery disease, were randomized to receive placebo or A-002 via oral administration twice a day over an eight week administration period at dosages of 50 mg, 100 mg, 250 mg, or 500 mg. Levels of various lipids and inflammatory markers were measured at the outset of the trial and at the end of weeks four and/or eight. For data sets with a normal distribution, mean levels of lipids or inflammatory markers were analyzed. For data sets with non-normal distribution, median levels were analyzed. […] In addition, administration of A-002 decreased median levels of CRP (Table 11).
The combined effect of A-002 and statin administration on LDL levels was tested in a population of 332 subjects. This population consisted of the original 204 United States subjects, plus an additional 128 subjects from the Ukraine with stable CAD that received placebo or A-002 based according to the same protocol as the United States subjects. […] Similarly, A-002 decreased LDL levels in subjects receiving a variety of non-statin compounds used in the treatment of CVD, including ezetimibe, AEGR-733/ezetimibe, colesevelam hydrochloride (WelChol®), MK-0524A (Cordaptive®), lisinopril/MC-1 antibody (MC-4232), and Angiotensin Receptor Blocker (ARB)/MC-1 (MC-4262).

Experiment [3] deals with ApoE−/− mice. In words: En face lesion size in ApoE−/− mice on high fat diet, A-002 and/or statin (Example 3). The settings on record: 0.02 g/kg pravastatin in diet alone, 12 weeks. How it is done: as §1
After twelve weeks, mice were sacrificed and plasma, heart tissue, and aortic tissue were collected. En face lesion size was determined via digital imaging analysis. Plaque content (as measured as en face lesion) was reduced in mice administered A-002 alone, statin alone, or A-002 in combination with statin. The reduction in plaque content in mice administered A-002 plus statin was substantially greater than the reduction in mice administered either compound alone (Table 2, compare Group D vs. Groups A and C; Group E vs. Groups B and C). Further, the reduction in plaque content in mice administered A-002 plus statin was substantially greater than the sum of the reduction in plaque content in mice administered A-002 alone and mice administered statin alone.

Where [4] appears, read: summary Table 20, A-002 alone, statin alone or A-002 plus statin.

Take `CC[C@H](C)C(=O)O[C@H]1C[C@H](O)C=C2C=C[C@H](C)[C@H](CC[C@@H](O)C[C@@H](O)CC(=O)O)[C@H]21` [Statin, pravastatin, reference compound]: in the experiment on ApoE−/− mice [1], the “Mean HDL concentration” value came to 14.500 mg/dL and the “Mean total cholesterol concentration” value was found to be 1405.417 mg/dL. For the same compound, in experiment [2] (at eight weeks, United States population, statin alone (Table 14)), the “increase of mean serum small LDL particle levels” value is on record as 13.26%. Besides, in experiment [2] (at eight weeks, United States subjects with baseline LDL of 72 mg/dl or greater, text restating Tables 15 and 19), the “decrease of mean serum LDL levels” value turned out to be 4.40%. Further, the “decrease of mean serum LDL levels” value in experiment [2] (at week eight, combined United States and Ukraine populations, Tables 16 and 18) came out at 2.15%. In experiment [2] (at week four, combined United States and Ukraine populations, Tables 16 and 18), the “decrease of mean serum LDL levels” value is given as 3.36%. Also, in experiment [2] (setting [4]), the “Observed change following administration: Mean serum [LDL] at week 4” value is given as −3.36%, the “Observed change following administration: Mean serum [LDL] at week 8” value is −2.15%, the “Observed change following administration: Mean serum [LDL] in ≧72 mg/dl subpopulation at week 8” value is given as −4.40% and the “Observed change following administration: Mean serum [small LDL particle] at week 8” value is “+13.26%”. For the same compound, in the experiment on ApoE−/− mice [3], the “Change in mean % en face lesion vs. control” value is −0.813% and the “Mean % en face lesion” value turned out to be 4.814%.

Regarding `O=C1[C@H](CC[C@H](O)c2ccc(F)cc2)[C@@H](c2ccc(O)cc2)N1c1ccc(F)cc1` [ezetimibe, reference compound], the “Observed change following administration: Mean serum [LDL] at week 8” value in experiment [2] (summary Table 22, A-002 alone, ezetimibe alone or A-002 plus ezetimibe) is on record as −1.7%.
